According to patent US20230114728A1 (Venatorx Pharmaceuticals, Inc., priority 2019, published 2023):

Columns and labels:
[1] = test system: N. gonorrhoeae WHO G; experiment: Liquid broth MIC in Fastidious broth; type: cell-based; settings: Neisseria gonorrhoeae; N. gonorrhoeae strain WHO G; Fastidious broth; read-out: Minimum Inhibitory Concentration, N. gonorrhoeae WHO G
Experimental: (§1) Example V: In Vitro Antibacterial Assays for N. gonorrhoeae Strains
(§2) Additional antibacterial testing of the series was performed in 8 reference strains of N. gonorrhoeae (ATCC 49226, FA1090, WHO G, WHO L, WHO K, H041, WHO Z, and WHO Q). ATCC 49226, FA1090, WHO G, and WHO L produce wild type or wild-type like PBP2. WHO K, H041, WHO Z, and WHO Q produce mosaic PBP2. Liquid broth-based assays were used for antibacterial testing of PBP inhibitors in Neisseria gonorrhoeae. Briefly, cryo-preserved bacterial cultures of clinical strains were streaked for isolation on Chocolate Agar (72 g/L (2×) GC Agar Base (BD #228950) and 2% (2×) Hemoglobin was autoclaved at 121° C. for 20 minutes to sterilize. Once cooled to ˜50° C. the 2× GC Agar Base and 2× Hemoglobin solutions are combined and 1% IsoVitaleX Enrichment (BD #211876) was added to the solution). Strains were incubated at 36° C. and 5% CO2 to allow growth of colonies, 24 hours before inoculum preparation. 2-fold serial dilutions of test compounds were conducted in a 96 well plate with a final volume of 75 μL per well at 2-fold the final desired concentration in Fastidious broth (Remel #R07664). For preparation of assay inoculum, a direct suspension was prepared by aseptically swabbing all colonies from agar plates into culture tubes containing 2 mL of fresh sterile saline. After the dilution plates were set up, direct suspensions were then diluted in a cuvette containing sterile saline and the optical density was measured at 600 nm. Inocula were diluted such that 75 μL of this culture in Fastidious broth results in a starting bacterial concentration of 5×10^5 CFU/mL when added to the dilution plates. The plates were incubated for ˜24 hours at 36° C. and 5% CO2. The MIC was read visually as the lowest concentration well with <10% bacterial growth compared to wells of full growth.

[2] = test system: N. gonorrhoeae H041; experiment: Liquid broth MIC in Fastidious broth; type: cell-based; settings: Neisseria gonorrhoeae, H041, read-out: Minimum Inhibitory Concentration, N. gonorrhoeae H041
Experimental: as §1, §2

[3] = test system: N. gonorrhoeae WHO L; experiment: Liquid broth MIC in Fastidious broth; type: cell-based; settings: Neisseria gonorrhoeae; N. gonorrhoeae strain WHO L; Fastidious broth; read-out: Minimum Inhibitory Concentration, N. gonorrhoeae WHO L
Experimental: as §1, §2

[4] = test system: N. gonorrhoeae FA1090; experiment: Liquid broth MIC in Fastidious broth; type: cell-based; settings: Neisseria gonorrhoeae; N. gonorrhoeae strain FA1090; Fastidious broth; read-out: Minimum Inhibitory Concentration, N. gonorrhoeae FA1090
Experimental: as §1, §2

[5] = test system: N. gonorrhoeae ATCC 49226; experiment: Liquid broth MIC in Fastidious broth; type: cell-based; settings: Neisseria gonorrhoeae, ATCC49226; N. gonorrhoeae strain ATCC 49226; Fastidious broth; read-out: Minimum Inhibitory Concentration, N. gonorrhoeae ATCC 49226
Experimental: as §1, §2

[6] = test system: N. gonorrhoeae WHO Z; experiment: Liquid broth MIC in Fastidious broth; type: cell-based; settings: Neisseria gonorrhoeae, read-out: Minimum Inhibitory Concentration, N. gonorrhoeae WHO Z
Experimental: as §1, §2

[7] = test system: N. gonorrhoeae WHO K; experiment: Liquid broth MIC in Fastidious broth; type: cell-based; settings: Neisseria gonorrhoeae, read-out: Minimum Inhibitory Concentration, N. gonorrhoeae WHO K
Experimental: as §1, §2

[8] = target: T1, E. coli K12 PBP3 (Escherichia coli, UniProt P0AD68); experiment: biochemical; type: binding
T1 construct: made in house
Summary of the method: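 Fluorescence polarization (ex 490/em 520 nm) competition of inhibitors against Bocillin-FL at 0.1 μM, read up to 60 min. Final PBP levels: E. coli PBP3 1.5 μM; A. baumannii PBP2 2.5 μM, PBP3 0.2 μM in Tris pH 8.0/NaCl/glycerol/Tween 20; N. gonorrhoeae PBP2 […] in Hepes pH 8.0/NaCl/glycerol. EC50 = concentration halving PBP-bound Bocillin-FL.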

[9] = target: T2, N. gonorrhoeae PBP2 (Neisseria gonorrhoeae, UniProt P08149); experiment: Bocillin-FL fluorescence polarization competition binding assay, N. gonorrhoeae PBP2; settings: N. gonorrhoeae PBP2; assay validation with beta-lactams; read-out: EC50 (concentration of beta-lactam required to reduce the amount of PBP bound-Bocillin-FL by 50%)
T2 construct: made in house
From the text: Example I: Experimental Method for Penicillin-Binding Protein Binding Assays with Bocillin-FL Via Fluorescence Polarization
To determine the ability of boronic acid-based test PBP inhibitors to bind Penicillin Binding Proteins (PBPs), Bocillin-FL (fluorescently-labeled penicillin V; ThermoFisher Scientific) was used in a fluorescence polarization (FP) competition binding assay to assess inhibitor binding to PBP2, PBP3 or PBP4 from Escherichia coli (K12), PBP3 from Pseudomonas aeruginosa (PA01), PBP1a, PBP2 and PBP3 from Acinetobacter baumannii (ATCC 19606), and PBP2 from Neiserria gonorrheae (FA19). PBPs were cloned and purified as described previously (E. coli PBPs, King, D. T, et al., ACS Infectious Diseases 2015, 1, 175-184; P. aeruginosa PBP3, Han et. al., PNAS 2010, 107 (51), 22002-22007; A. baumannii PBPs, Penwell et. al., Antimicrob. Agents Chemother. 2015, 59 (3), 1680-1689; N. gonorrhoeae PBP2, Singh et. al., J Biol. Chem. 2019, 294 (38), 14020-14032). To establish assay conditions for competition binding, enzyme titration/saturation binding experiments were initially performed. Bocillin-FL was prepared at 0.2 μM in a buffer comprised of 50 mM Hepes (pH 8.0), 300 mM NaCl and 5% (v/v) glycerol for reactions with E. coli, P. aeruginosa and N. gonorrhoeae PBPs, and 25 mM Tris (pH 8.0), 200 mM NaCl and 10% (v/v) glycerol and 0.005% (v/v) Tween 20 for reactions with A. baumannii PBPs. Saturation binding was performed by mixing 40 μl of PBP solutions ranging in concentrations from 0-24 μM with 40 μl of the 0.2 μM Bocillin-FL solution, in individual wells of a black 384-well microplate. FP was measured immediately upon mixing (Excitation, 490 nm; Emission, 520 nm; g-factor, 0.96), using a Cytation3 (BioTek) microplate reader and measured continuously for up to 120 minutes. […] The competition binding assay (80 μl final volume) was validated using beta-lactams and PBPs at final concentrations of: 1.5 μM, E. coli PBP3; 0.75 μM, P. aeruginosa PBP3; 1 μM A. baumannii PBP1a; 2.5 μM A. baumannii PBP2; 0.2 μM A. baumannii PBP3; and […] N. gonorrhoeae PBP2. Bocillin-FL was at 0.1 μM (0.05 μM with A. baumannii PBP1a) and beta-lactam concentrations ranged from 0-1000 μM. […] Bocillin-FL was added and the FP immediately measured for up to 60 minutes (90 minutes for E. coli PBP2). […] The beta-lactam potency was reported as the concentration of beta-lactam required to reduce the amount of PBP bound-Bocillin-FL by 50% (EC50). […] Binding assays for boronic acid PBP inhibitors were performed in an identical fashion for the respective PBPs

T1 sequence (P0AD68 1-577): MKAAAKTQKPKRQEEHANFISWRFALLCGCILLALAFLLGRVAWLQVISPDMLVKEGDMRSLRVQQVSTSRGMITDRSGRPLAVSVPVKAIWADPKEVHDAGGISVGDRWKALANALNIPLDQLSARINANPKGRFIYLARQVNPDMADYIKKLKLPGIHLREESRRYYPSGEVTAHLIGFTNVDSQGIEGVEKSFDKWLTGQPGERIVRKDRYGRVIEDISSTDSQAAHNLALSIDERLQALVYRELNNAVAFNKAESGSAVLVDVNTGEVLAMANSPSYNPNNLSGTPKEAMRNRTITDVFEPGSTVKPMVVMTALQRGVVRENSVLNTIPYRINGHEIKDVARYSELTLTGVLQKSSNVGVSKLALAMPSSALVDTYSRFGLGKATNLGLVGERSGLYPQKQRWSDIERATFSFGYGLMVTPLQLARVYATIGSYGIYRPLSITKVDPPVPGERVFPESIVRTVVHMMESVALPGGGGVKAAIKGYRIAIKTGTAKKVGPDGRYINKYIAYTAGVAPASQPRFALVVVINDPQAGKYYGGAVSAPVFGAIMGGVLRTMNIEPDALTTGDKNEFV
T2 sequence (P08149 whole entry): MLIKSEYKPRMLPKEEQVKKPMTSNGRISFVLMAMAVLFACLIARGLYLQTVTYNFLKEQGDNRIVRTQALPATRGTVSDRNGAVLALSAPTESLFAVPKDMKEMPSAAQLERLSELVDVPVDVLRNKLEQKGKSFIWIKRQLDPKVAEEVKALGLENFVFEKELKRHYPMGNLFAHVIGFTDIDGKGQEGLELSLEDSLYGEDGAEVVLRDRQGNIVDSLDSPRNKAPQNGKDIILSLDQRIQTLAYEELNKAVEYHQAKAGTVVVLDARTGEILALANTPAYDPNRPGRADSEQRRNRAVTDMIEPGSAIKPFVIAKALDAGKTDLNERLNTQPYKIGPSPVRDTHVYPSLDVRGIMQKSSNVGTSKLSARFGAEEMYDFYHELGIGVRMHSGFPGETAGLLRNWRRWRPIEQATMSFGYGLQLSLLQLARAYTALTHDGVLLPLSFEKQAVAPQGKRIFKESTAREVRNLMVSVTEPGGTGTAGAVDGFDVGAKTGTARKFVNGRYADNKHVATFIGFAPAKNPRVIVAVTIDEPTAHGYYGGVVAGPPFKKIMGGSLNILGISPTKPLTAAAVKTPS

In the case of CC(C)(C)[C@@H](NC(=O)c1c(F)cc(O)c(O)c1Cl)C(=O)N[C@H]1Cc2ccc(F)c(C(=O)O)c2OB1O [Example 12, (R)-3-((R)-2-(2-chloro-6-fluoro-3,4-dihydroxybenzamido)-3,3-dimethylbutanamido)-7-fluoro-2-hydroxy-3,4-dihydro-2H-benzo[e][1,2]oxaborinine-8-carboxylic acid], the MIC [1] is reported as > 64 µg/mL, the MIC [2] is reported as > 64 µg/mL and the MIC [3] is reported as > 64 µg/mL. For the same compound, the MIC [4] was > 64 µg/mL, the MIC [5] was > 64 µg/mL and the MIC [6] was > 64 µg/mL. For the same compound, the MIC [7] was > 64 µg/mL and the EC50 [8] was 30 to 500 µM.
In the case of C=CC1=C(C(=O)O)N2C(=O)[C@@H](NC(=O)/C(=N\OCC(=O)O)c3csc(N)n3)[C@H]2SC1 [cefixime, reference compound], the EC50 [9] is reported as 0.26 µM.
